Source: US20240285624A1, “ERK1/2 OR SHP2 INHIBITORS AND FLT3 INHIBITORS COMBINATION THERAPY” (Erasca, Inc., priority 2021, published 2024)

Legend:
[1] = system: ERK1/2 phosphorylation in MOLM-14 cells; assay: Western blot of phosphorylated ERK1/2; type: cell-based; settings: compound 2 alone, 4 hours, relative to DMSO treated control cells
Experimental: (§1) Western blotting: Cells were lysed on ice for 10 minutes with Thermo Fisher RIPA lysis buffer with protease and phosphatase inhibitors. The cells were centrifuged at 4° for 10 minutes with a microcentrifuge. The supernatant was transferred to pre-chilled microcentrifuge tube and protein concentration of the lysate was measured using BCA method. Cell lysate supematants of equal-amount of proteins were used for immunoblotting.
(§2) FIG. 3A is a Western blot showing compound 2 and gilteritinib combination induced downregulation of ERK1/2 phosphorylation in MOLM-14 cells. FIG. 3B is a bar plot quantifying the results of […]. The cell lines, MOLM14 and MV-4-11 were split onto a 6 well plate and treated with compound 2 and gilteritinib alone, and in combination as indicated (FIGS. 3A/B and 4A/B). After 4 hours treatment, cells were lysed and immunoblotted for phosphorylated ERK1/2. […] The phosphorylated ERK1/2 bands were quantified by using Bio-Rad Image Lab software and normalized by total ERK.

[2] = system: MOLM-13 subcutaneous CDX model; assay: In vivo tumor growth, FLT3-ITD mutated AML subcutaneous CDX model MOLM-13; parameters: species or system Balb/c nude mice; settings: compound 2 15 or 30 mg/kg PO QD; groups terminated on treatment day 12
Experimental: The vehicle/control article, 100 mM acetic acid in deionized water, with pH adjustment to 4.8-5.0, was prepared and stored under ambient conditions throughout the 42-day administration in mice.
The test article, compound 2, was freshly prepared in vehicle of 100 mM acetic buffer weekly and stored under ambient conditions. The combination agent gilteritinib was prepared weekly in vehicle of 0.5% Methyl Cellulose & 0.1% Tween 80 Solution weekly and stored under ambient conditions.
Female Balb/c nude mice were between 6-8 weeks of age at the time of implantation. Mice were hosted in a special pathogen-free (SPF) environment of the vivarium facility and acclimated to their new environment for at least 3 days prior to initiation of any experiments according to IACUC protocol.
MOLM-13 was AML cell line that harbored a FLT3-ITD mutation. MOLM-13 cells were cultured in medium containing RPMI1640 plus 10% Fetal Bovine Serum (FBS) and 1% Antibiotic-Antimycotic (AA), at 37° C. in an atmosphere of 5% CO2 in air. The medium was renewed every 2 to 3 days and tumor cells were routinely sub-cultured at a confluence of 80-90% by trypsin-EDTA. Cells growing in an exponential growth phase were harvested and counted for inoculation. […] Animal health and tumor growth were monitored daily. Tumor volume was measured twice a week by caliper when tumors were palpable and measurable. […]

[3] = system: ERK1/2 phosphorylation in MV-4-11 cells; assay: Western blot of phosphorylated ERK1/2; type: cell-based; settings: compound 2 alone, 4 hours, relative to DMSO treated control cells
Experimental: as §1, §2
FIG. 4A is a Western blot showing compound 2 and gilteritinib combination induced downregulation of ERK1/2 phosphorylation in MV-4-11 cells. FIG. 4B is a bar plot quantifying the results of […]. […] The phosphorylated ERK1/2 bands were quantified by using Bio-Rad Image Lab software and normalized by total ERK.

## COCOC[C@H]1C[C@H]2COc3c(Sc4cnc(N5CCC6(CC5)CO[C@@H](C)[C@H]6N)c(CO)n4)ccnc3N2C1 [compound 2, (3-((3S,4S)-4-amino-3-methyl-2-oxa-8-azaspiro[4.5]decan-8-yl)-6-(((6aS,8S)-8-((methoxymethoxy)methyl)-6a,7,8,9-tetrahydro-6H-pyrido[3,2-b]pyrrolo[1,2-d][1,4]oxazin-4-yl)thio)pyrazin-2-yl)methanol]
[1]
  inhibition of ERK1/2 phosphorylation (immunoblot): about 30%
[2]
  tumor growth under monotherapy (group termination): rapid tumor growth
[3]
  inhibition of ERK1/2 phosphorylation (immunoblot): about 50%
